Experimental data taken from patent US9512140B2, “(Thieno[2,3-b][1,5]benzoxazepin-4-yl)piperazin-1-yl compounds as dual activity H1 inverse agonists/5-HT2A antagonists” (priority 2011, dated 2016).
Structures can show the parent of a compound that is named as a salt.

Key:
[1] = tested on: native GABAA receptors; assay: GABAA antagonism using native receptors in primary neuronal cultures (FLIPR); type: cell-based; conditions: against GABA at 10 μM, rat cortical embryonic neurons
Protocol: Activity of compounds on native GABAA receptors is evaluated by monitoring calcium fluxes using a 96 well format FLIPR® system (Fluorometric Imaging Plate Reader (FLIPR®, Molecular Devices). Briefly, cortical embryonic neurons are dissociated from E18 rat embryos and plated at optimum density into black-walled, transparent bottom poly-D-lysine coated 96-well FLIPR® plates. After loading the cells with a calcium sensitive dye (Fluo4-AM, Molecular Devices), the cells are bathed in a solution containing low chloride (chloride replaced by gluconate). Under these conditions activation of GABAA receptors causes an efflux of chloride ions (in the direction of the chemical gradient), which results in membrane depolarization and consequently activation of voltage gated calcium channels (VGCCs). Calcium influx through VGCCs is recorded and analysed offline using the FLIPR® system. For a pharmacological validation of the assay, concentration response curves (CRC) are recorded for the standard agonist (GABA) and standard antagonist (Gabazine). […]
The antagonist effects of compounds are quantified using 10-point dose response curves by comparing the peak fluorescent responses to the agonist GABA in the presence and absence of compound. […] Antagonist effects are calculated as a percent of the assay window. […]

[2] = tested on: Rats; assay: Sleep and behavioral monitoring in rats (EEG, EMG, motion); type: in vivo
Protocol: The compound of the present invention is tested in rats for its ability to increase the amount of sleep or decrease sleep interruption or both without undesired effects such as inhibition of REM sleep, waking motor impairment, and/or rebound insomnia. Test animals are continuously monitored by electro-encephalograms (EEG), electromyograms (EMG), and motion to measure cumulative nonREM sleep, cumulative total sleep, average sleep bout duration, longest sleep bout duration, rebound insomnia. REM sleep inhibition and locomotor activity intensity during wakefulness. Methods for such studies are known in the art (see for example methods described in Edgar D M, Seidel W F. Modafinil induces wakefulness without intensifying motor activity or subsequent rebound hypersomnolence in the rat. J Pharmacology & Experimental Therapeutics 1997; 283: 757-769; van Gelder R N, Edgar D M, Dement W C. Real-time automated sleep scoring: validation of a microcomputer-based system for mice. Sleep 1991, 14: 48-55; and Gross B A, Walsh C M, Turakhia A A, Booth V, Mashour G A, Poe G R. Open-source logic-based automated sleep scoring software using electrophysiological recordings in rats. J Neurosci Methods. 2009; 184(1):10-8.) Studies are conducted as follows:
Adult, male Wistar rats (approximately 270-300 g at time of surgery) are surgically fitted for chronic recording of EEG, EMG, and motion as follows: Rats are surgically prepared with a cranial implant consisting of four stainless steel screws for EEG recording (two frontal [3.9 mm anterior from bregma, and ±2.0 mm mediolaterally] and two occipital [6.4 mm posterior from bregma, ±5.5 mm mediolaterally]), and with two Teflon-coated stainless steel wires for EMG recording (positioned under the nuchal trapezoid muscles). All leads are soldered to a miniature connector (Microtech, Boothwyn, Pa.) prior to surgery. The implant assembly is affixed to the skull by the combination of the stainless steel EEG recording screws, cyanoacrylate applied between the implant connector and skull, and dental acrylic. Locomotor activity is monitored via a miniature transmitter (Minimitter PDT4000G, Philips Respironics, Bend, Oreg.) surgically placed into the abdomen. At least 3 weeks are allowed for recovery.
Each rat is housed individually within a microisolator cage modified with an inserted polycarbonate filter-top riser to allow more vertical headroom. A flexible cable that minimally restricts movement is connected at one end to a commutator afixed to the cage top and at the other end to the animal's cranial implant. Each cage is located within separate, ventilated compartments of a stainless steel sleep-wake recording chamber. Food and water are available ad libitum and the ambient temperature is maintained at about 23±1° C. A 24-hr light-dark cycle (LD 12:12) using fluorescent light is maintained throughout the study. Relative humidity averages approximately 50%. Animals are undisturbed for at least 30 hrs before and after each treatment.
The vehicle (placebo, methylcellulose 15 centipoise 0.25% in water) or one of the test compound dose levels is administered orally at 1 mL/kg pseudo-randomly such that no rat receives the same treatment twice, and no rat receives more than two of the 8 treatments in any one study. Each rat is removed from its cage for about a minute to be weighed and treated. At least 6 days “washout” period precede and follow each treatment. […]

[3] = target: 5-HT2B (Homo sapiens, UniProt P41595); assay: 5-HT2B binding
Text: (§1) Further, the compounds of the invention may be tested in binding assays and functional activity assays by well known methods for other physiologically important receptors such as, but not limited to, the hERO channel, other serotonin receptors (specifically 5-HT1B, 5-HT1D, receptors, lack of agonist activity at 5-HT2B receptors, 5-HT2C, 5-HT5, 5-HT6, and 5-HT7 receptors), dopaminergic receptors (specifically D1, D2, and D3), GABAA receptors, adrenergic receptors and monoamine transporters.

[4] = target: Norepinephrine Transport (Homo sapiens, UniProt P23975); assay: Norepinephrine transporter binding
Text: as §1

[5] = tested on: Rats; assay: Rat sleep studies, coadministration with citalopram; type: in vivo; conditions: coadministered with citalopram
[6] = target: Adrenergic alpha2C (Homo sapiens, UniProt P18825); assay: Adrenergic alpha2C binding
Text: as §1

[7] = threshold efficacy dose, 4 parameter logistic regression, 6 hr. after treatment, rat PO

Sequence of Adrenergic alpha2C (P18825 whole entry): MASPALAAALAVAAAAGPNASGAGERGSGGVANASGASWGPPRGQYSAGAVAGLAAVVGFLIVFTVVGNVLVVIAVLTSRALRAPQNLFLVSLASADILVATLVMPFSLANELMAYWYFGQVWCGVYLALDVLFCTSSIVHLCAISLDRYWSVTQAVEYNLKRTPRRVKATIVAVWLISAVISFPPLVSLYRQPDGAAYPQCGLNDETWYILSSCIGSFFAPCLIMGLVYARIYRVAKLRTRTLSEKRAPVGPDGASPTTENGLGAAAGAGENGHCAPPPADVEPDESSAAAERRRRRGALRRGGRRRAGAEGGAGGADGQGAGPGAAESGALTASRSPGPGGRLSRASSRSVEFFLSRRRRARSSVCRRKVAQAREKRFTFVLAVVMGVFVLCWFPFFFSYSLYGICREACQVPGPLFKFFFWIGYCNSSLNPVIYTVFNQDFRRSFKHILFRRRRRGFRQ
Sequence of 5-HT2B (P41595 whole entry, species assumed): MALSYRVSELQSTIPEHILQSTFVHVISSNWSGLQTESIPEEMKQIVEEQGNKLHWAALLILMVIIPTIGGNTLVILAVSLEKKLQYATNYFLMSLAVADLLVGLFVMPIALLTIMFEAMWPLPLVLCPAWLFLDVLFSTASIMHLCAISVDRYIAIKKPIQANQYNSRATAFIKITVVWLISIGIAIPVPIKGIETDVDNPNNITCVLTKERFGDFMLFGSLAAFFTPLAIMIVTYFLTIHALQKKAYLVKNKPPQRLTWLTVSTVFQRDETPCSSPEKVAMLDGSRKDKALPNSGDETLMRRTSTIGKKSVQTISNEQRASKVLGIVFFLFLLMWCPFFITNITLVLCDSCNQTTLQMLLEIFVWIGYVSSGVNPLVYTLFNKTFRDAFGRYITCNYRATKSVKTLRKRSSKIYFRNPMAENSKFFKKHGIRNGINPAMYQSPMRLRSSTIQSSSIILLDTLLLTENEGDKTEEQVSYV
Sequence of Norepinephrine Transport (P23975 whole entry): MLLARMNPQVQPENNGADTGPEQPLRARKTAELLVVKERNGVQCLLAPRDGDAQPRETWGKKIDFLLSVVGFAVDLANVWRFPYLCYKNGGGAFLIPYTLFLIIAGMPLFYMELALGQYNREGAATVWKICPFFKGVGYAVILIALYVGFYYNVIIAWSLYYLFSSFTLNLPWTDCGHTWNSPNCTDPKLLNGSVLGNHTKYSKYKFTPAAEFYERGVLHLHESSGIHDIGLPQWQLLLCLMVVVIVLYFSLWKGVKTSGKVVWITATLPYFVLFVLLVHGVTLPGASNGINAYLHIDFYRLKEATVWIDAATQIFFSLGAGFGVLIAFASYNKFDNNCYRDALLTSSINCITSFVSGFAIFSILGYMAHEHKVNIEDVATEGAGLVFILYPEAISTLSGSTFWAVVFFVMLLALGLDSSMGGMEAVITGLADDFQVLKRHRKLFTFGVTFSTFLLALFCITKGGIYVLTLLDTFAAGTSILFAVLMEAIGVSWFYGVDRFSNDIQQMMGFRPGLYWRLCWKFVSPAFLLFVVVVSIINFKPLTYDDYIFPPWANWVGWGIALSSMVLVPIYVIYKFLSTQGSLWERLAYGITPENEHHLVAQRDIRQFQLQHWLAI

Q: Which IC50 [1] does the source give for `Cc1ccc2c(c1)Oc1sc(C)cc1C(N1CCN(CC(C)(C)C(=O)O)CC1)=N2` [Example 2, 3-[4-(2,8-Dimethylthieno[2,3-b][1,5]benzoxazepin-4-yl)piperazin-1-yl]-2,2-dimethyl-propanoic acid dihydrochloride] here?
A: 98 µM

Q: And the “apparent REM sleep inhibition, statistical significance” value ([2]; 0.25 mg/kg and 0.025 mg/kg, rat)?
A: not statistically significant

Q: And the “REM sleep inhibition against the threshold value (−10 min.)” value ([2]; 3 mg/kg, rat)?
A: exceeded the threshold value

Q: And the “cumulative NREM sleep time (in words)” value ([2]; 3 mg/kg, rat)?
A: significantly increase

Q: And the “cumulative total sleep time (in words)” value ([2]; 3 mg/kg, rat)?
A: significantly increase

Q: What about the “inhibition of locomotor intensity (LMI) (in words)” value ([2]; 3 mg/kg, rat) of the same molecule?
A: without significant

Q: What about the “rebound insomnia (in words)” value ([2]; 3 mg/kg, rat) of the same molecule?
A: without significant rebound insomnia

Q: And the “REM sleep inhibition (overall conclusion, in words)” value ([2]; rat sleep study)?
A: cannot be ruled out

Q: What about the “rebound insomnia or reduction in LMI within 10 times the most conservative efficacy dose” value ([2]; rat, efficacy dose 0.26 mg/kg) of the same molecule?
A: no undesired occurences of REM rebound insomnia, or reduction in LMI are observed

Q: And the “Estimated efficacy dose, NREM accumulation = 30 min.” value [2, 7]?
A: 0.05 mg/kg

Q: And the “Estimated efficacy dose, average sleep bout (1.5-fold increase)” value [2, 7]?
A: 0.21 mg/kg

Q: What about the “Estimated efficacy dose, longest sleep bout (1.75-fold increase)” value [2, 7] of the same molecule?
A: 0.26 mg/kg

Q: What about the “Estimated efficacy dose, total sleep accumulation = 25 min.” value [2, 7] of the same molecule?
A: 0.07 mg/kg

Q: And the Ki [3]?
A: 95.8 nM

Q: And the Ki [4]?
A: > 674 nM

Q: And the “NREM sleep on coadministration with citalopram” value [5]?
A: significantly increase NREM sleep at significantly lower doses

Q: What about the Ki [6] of the same molecule?
A: > 5.55 µM
